Data set [1] has as its system MCF7. The data set can be described thus: Cytotoxicity against human estrogen receptor positive MCF7 cells after 72 hrs by MTT assay. The format is functional, cell-based. The conditions noted are these: for IC50: MCF7, 72 h. On the technique in general: Tetrazolium assays rely on reduction of a dye to a coloured formazan, in cell work by metabolically active cells.

The test system of another data set is NIH3T3. The data set can be described thus: Cytotoxicity against mouse 3T3 cells assessed as cell viability at 0.1 to 10 uM after 72 hrs by MTT assay. Type of data set: cell-based. The conditions noted are these: nih3t3, 72 h.
Data set [2] deals with SK-BR-3. The data set can be described thus: Cytotoxicity against human estrogen receptor negative SKBR3 cells after 72 hrs by MTT assay. The format is functional, cell-based. The conditions noted are these: SK-BR-3, 72 h.
Data set [3] relates to MCF7. The data set can be described thus: Cytotoxicity against human estrogen receptor positive MCF7 cells at 50 uM after 72 hrs by MTT assay. Type of data set: functional, cell-based.
The subject of data set [4] is MCF7. As to the kind of experiment: Cytotoxicity against human estrogen receptor positive MCF7 cells at 1 uM after 72 hrs by MTT assay. The format is functional, cell-based.
Data set [5] has as its system SK-BR-3. As to the kind of experiment: Cytotoxicity against human estrogen receptor negative SKBR3 cells at 0.1 to 50 uM after 72 hrs by MTT assay. The format is functional, cell-based.
Data set [6] deals with MCF7. The data set can be described thus: Cytotoxicity against human estrogen receptor positive MCF7 cells at 0.1 uM after 72 hrs by MTT assay. Type of data set: functional, cell-based.
Data set [7] relates to SK-BR-3. The data set can be described thus: Cytotoxicity against human estrogen receptor negative SKBR3 cells at 10 uM after 72 hrs by MTT assay. Type of data set: functional, cell-based.
Data set [8] has as its system MCF7. As to the kind of experiment: Cytotoxicity against human estrogen receptor positive MCF7 cells at 1 to 10 uM after 72 hrs by MTT assay. Type of data set: functional, cell-based.

Calls of active or inactive are those of the source. The rule behind the calls is not given here.

The values below come from ChEMBL document CHEMBL2413061, “Synthesis and cytotoxic activity evaluation of 2,3-thiazolidin-4-one derivatives on human breast cancer cell lines” (Bioorg Med Chem Lett, 2013).

For the compound `O=C1CSC(c2ccccc2)N1c1ccccc1` (stereo unspecified), the Activity entry with MCF7 [1] was “Dose-dependent effect”; in the data set with NIH3T3, “Non-toxic”. In the data set with SK-BR-3 [2], the IC50 (usually the midpoint of a concentration-inhibition curve) was determined as 810 nM.
As for `O=C1CSC(c2ccc(O)c(O)c2)N1c1ccc(O)cc1` (stereo unspecified), the inhibition result with MCF7 [3] and with SK-BR-3 [5] was “inactive” each time. For the same compound, the inhibition result in the data set with MCF7 [4] is “Active”. Also, the Activity result in the data set on NIH3T3 is “Non-toxic”.
As for `Cc1ccc(N2C(=O)CSC2c2cccc3ccccc23)cc1` (stereo unspecified), the inhibition result with MCF7 [3] was “inactive”. The Activity result with NIH3T3 is “Non-toxic”. Besides, half-maximal inhibition in the data set on SK-BR-3 [2] (IC50) was put at 250 nM. The inhibition result in the data set with MCF7 [6] is “Active”.
Take `COc1cc(C2SCC(=O)N2c2ccc(O)cc2)cc(OC)c1OC` (stereo unspecified): the Activity result with MCF7 [1] was “Dose-dependent effect”; in the data set on NIH3T3 it was “Non-toxic”. Moreover, in the data set with SK-BR-3 [5], the inhibition entry is “inactive”. Also, the inhibition result in the data set on SK-BR-3 [7] is “Active”.
Regarding `COc1ccc(C2SCC(=O)N2c2ccc(O)cc2)cc1OC` (stereo unspecified), in the data set with MCF7 [1], the Activity entry is “Dose-dependent effect” and the IC50 stood at 2580 nM. In the data set on NIH3T3, the Activity entry was “Non-toxic”. Moreover, in the data set with SK-BR-3 [5], the inhibition entry was “inactive”. Moreover, the result with MCF7 [8] was Active. In addition, in the data set on SK-BR-3 [7], the inhibition result was “Active”.
As to `COc1ccc(C2SCC(=O)N2c2ccc(O)cc2)c(OC)c1` (stereo unspecified), the Activity result with MCF7 [1] is “Dose-dependent effect”; in the data set with NIH3T3, “Non-toxic”. Further, in the data set with SK-BR-3 [5], the inhibition result is “inactive”.
For the compound `O=C1CSC(c2cc(O)cc(O)c2)N1c1ccc(O)cc1` (stereo unspecified), the values for the Activity entry in the data set on MCF7 [1] and in the data set on NIH3T3 were “Dose-dependent effect” and “Non-toxic”, respectively. Also, in the data set on SK-BR-3 [5], the inhibition result was “inactive”. Further, the inhibition result in the data set with SK-BR-3 [7] was “Active”.
Take `COc1cc(C2SCC(=O)N2c2ccc(C)cc2)cc(OC)c1OC` (stereo unspecified): the Activity entry in the data set on NIH3T3 is “Non-toxic”. Further, the 50% inhibitory concentration (IC50) in the data set on SK-BR-3 [2] worked out at 230 nM.
Regarding `O=C1CSC(c2ccc(O)cc2O)N1c1ccc(O)cc1` (stereo unspecified), in the data set on NIH3T3, the Activity result is listed as “Non-toxic”. For the same compound, the inhibition entry in the data set on SK-BR-3 [5] was “inactive”.
`Oc1ccc(/C=C/c2cc(O)cc(O)c2)cc1` [RESVERATROL]: the IC50 in the data set with MCF7 [1] was 28100 nM; with SK-BR-3 [2], 41400 nM.
With `O=C1CSC(c2ccc(Cl)cc2)N1c1ccc(O)cc1` (stereo unspecified), in the data set with MCF7 [1], the Activity result is “Dose-dependent effect” and the IC50 came out at 5000 nM. The Activity entry with NIH3T3 is “Non-toxic”. Moreover, in the data set with SK-BR-3 [5], the inhibition entry was “inactive”. Further, the result with MCF7 [8] was Active. In the data set on SK-BR-3 [7], the inhibition result was “Active”.
On to `O=C1CSC(c2ccc(O)cc2)N1c1ccc(O)cc1` (stereo unspecified), for which, in the data set on NIH3T3, the Activity entry is listed as “Non-toxic”. In addition, in the data set on SK-BR-3 [5], the inhibition entry is “inactive”.
Turning to `Cc1ccc(N2C(=O)CSC2c2ccc(Cl)cc2)cc1` (stereo unspecified), the figures for the Activity result in the data set on MCF7 [1] and in the data set on NIH3T3 were “Dose-dependent effect” and “Non-toxic”, respectively. Besides, in the data set on SK-BR-3 [5], the inhibition entry is “inactive”. The inhibition result in the data set with SK-BR-3 [7] is “Active”.
